Data from patent US9090599B2, “Heteroarylmethyl amides” (Hoffman-La Roche Inc., priority 2010, dated 2015).
pEC50: −log10 of the molar value.

Columns and labels:
human CB1 receptor = target: T1, human CB1 receptor (Homo sapiens, UniProt P21554); assay: CB1 receptor affinity, [3H]-CP-55,940 displacement, HEK cell membranes; type: binding; conditions: 10 μM compound, radioligand [3H]-CP-55,940; read-out: CB1 receptor affinity [% inhibition @ 10 μM]
T1 construct: expressed in transfected cells; host or cells: human embryonic kidney (HEK) cells, Semliki Forest Virus system, membrane preparations
T1 sequence (P21554 whole entry): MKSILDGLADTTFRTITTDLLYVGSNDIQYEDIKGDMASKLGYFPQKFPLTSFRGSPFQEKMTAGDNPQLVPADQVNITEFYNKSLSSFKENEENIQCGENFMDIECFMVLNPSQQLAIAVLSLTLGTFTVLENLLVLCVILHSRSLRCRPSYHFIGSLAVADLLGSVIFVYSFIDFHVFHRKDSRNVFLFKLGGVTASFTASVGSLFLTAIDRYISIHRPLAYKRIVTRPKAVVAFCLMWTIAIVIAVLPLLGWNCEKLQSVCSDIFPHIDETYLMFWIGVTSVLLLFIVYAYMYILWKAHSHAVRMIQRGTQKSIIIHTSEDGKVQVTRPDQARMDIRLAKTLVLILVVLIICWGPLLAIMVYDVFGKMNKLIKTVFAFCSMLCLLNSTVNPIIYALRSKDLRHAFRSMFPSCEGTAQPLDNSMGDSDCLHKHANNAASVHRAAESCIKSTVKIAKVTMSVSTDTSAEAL
Protocol: (§1) The affinity of the compounds of the invention for cannabinoid receptors was determined using membrane preparations of human embryonic kidney (HEK) cells in which the human CB1 receptor is transiently transfected using a Semliki Forest Virus system in conjunction with [3H]-CP-55,940 as radioligand. After incubation of freshly prepared cell membrane preparation with the [^3H]-ligand, with or without addition of compounds of the invention, separation of bound and free ligand was performed by filtration over glass fiber filters. Radioactivity on the filter was measured by scintillation counting.
(§2) The ability of the compounds to displace the radioligand [^3H]-CP-55,940 was measured at a concentration of 10 μM and values provided as [% inhibition @ 10 μM] both for the CB 1 and CB2 receptor assay, The lower % inhibition is, the lower the likelihood of side effects based on CB1 or CB2 receptor inhibition is.

human CB2 receptor = target: T2, human CB2 receptor (Homo sapiens, UniProt P34972); assay: CB2 receptor affinity, [3H]-CP-55,940 displacement, HEK cell membranes; type: binding; conditions: 10 μM compound, radioligand [3H]-CP-55,940
T2 construct: expressed in transfected cells; host or cells: human embryonic kidney (HEK) cells, Semliki Forest Virus system, membrane preparations
T2 sequence (P34972 whole entry): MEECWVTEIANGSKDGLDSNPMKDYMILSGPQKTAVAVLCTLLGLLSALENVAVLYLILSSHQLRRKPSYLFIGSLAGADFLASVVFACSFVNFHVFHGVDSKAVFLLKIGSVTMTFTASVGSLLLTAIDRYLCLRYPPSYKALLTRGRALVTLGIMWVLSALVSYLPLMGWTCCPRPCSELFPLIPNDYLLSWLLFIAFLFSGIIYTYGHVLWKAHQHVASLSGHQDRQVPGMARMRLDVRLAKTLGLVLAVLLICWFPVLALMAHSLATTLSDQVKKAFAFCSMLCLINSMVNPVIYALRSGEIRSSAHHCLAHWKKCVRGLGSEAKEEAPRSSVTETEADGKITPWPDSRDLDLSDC
Protocol: as §1, with “cannabinoid CB2” for “cannabinoid”, “CB2” for “CB1”, “[^3H]-CP-55,940” for “[3H]-CP-55,940”
as §2

ABCA1 protein = assay: Detection of upregulation of ABCA1 protein in THP-1 macrophage cells (ApoA-I binding, high content imaging); type: cell-based; conditions: 24 hrs with compound, AlexaFluor 647 ApoA-I binding, read-out: ABCA1 protein increasing efficacy EC50
Protocol: The ability of compounds of the invention to increase the level of ABCA1 protein is determined in replicate cultures of THP-1 macrophage cells in 96-well microplates. Cells are plated at an initial density of 100,000 cells/well in 100 μl medium and differentiated to adherent macrophages with the addition of PMA (100 nM) for 68 hrs in 10% fetal bovine serum, 3 μl/L of b-mercaptoethanol, RPMI-1640 medium. Then, cells are incubated with RPMI-1640 medium containing 1% FCS, 25 μg/ml acetylated LDL, for 24 hours at 37°. Following incubation with acetylated LDL, cells are washed twice with 50 μl PBS and incubated with 100 μl of RPMI-1640 medium containing the compound of interest solubilized in DMSO for an additional 24 hrs. The final DMSO concentration in presence of cells is maintained at 0.5%. ApoA-I binding assay using High Content Image Analysis is initiated by replacing with fresh medium, RPMI without Phenol Red, 0.2% BSA containing AlexaFluor®647 labeled ApoA-I for 2 h/37° C./5% CO2. Then, cells are fixed with 4% Formaldehyde in PBS (15 min, RT). Following Nuclei are stained with Hoechst solution (3 μM PBS) and Cytoplasm with Cell Mask Blue (2 μg/ml PBS), 15 min, RT. Finally the stained cells are fixed with a second round of formaldehyde treatment. Fixed stained cells are washed and kept in PBS at 4° C. and can be read immediately until one month after preparation.
The Alexa Fluor 647-labeled Apolipoprotein A-I (20 nM) was prepared as follows: Human recombinant Apolipoprotein A-I (ApoA-I) was exchanged to a buffer of 0.02 M NaHCO3 at pH 8.2 on an NAP desalting column (GE Healthcare) and brought to a concentration to 40 μM (1.13 mg/ml) by adjustment with the same buffer. The ApoA-I was fluorescently labeled by incubation with Alexa Fluor carboxylic acid succimidyl ester. (Alexa Fluor 647, Invitrogen A-20006) at a 2:1 molar ratio (Alexa to ApoA-I) for 1 h under shaking at RT. The remaining unconjugated label was removed by buffer exchange to 0.02M NaHCO3 at pH 8.2.
Imaging and data collection were performed on an OPERA confocal microplate imaging reader using a 20× water immersion objective and UV360 or 405 laser to identify the cell nuclei and a 635 laser to identify the fluorescent ApoA-I. Eight fields of view are captured per well. Image capture and analysis was performed with the Acapella software. Background fluorescence detected in control wells without ApoA-I was subtracted.
Using XLfit3 program (ID Business Solutions Ltd. UK), the model 205 for Dose Response One Site is used to calculate the EC50 values. […] Preferably, the compounds of the present invention have EC50 values in a range of 0.1 μM to 3 μM.

| SMILES | inhibition at 10 µM (human CB1 receptor) [%] | inhibition at 10 µM (human CB2 receptor) [%] | pEC50 (ABCA1 protein) |
| --- | --- | --- | --- |
| CCCc1nc(CNC(=O)c2cnc(OCC(F)(F)F)c(-c3ccc(Cl)cc3)c2)cs1 [Example 9, 5-(4-chloro-phenyl)-N-(2-propyl-thiazol-4-ylmethyl)-6-(2,2,2-trifluoro-ethoxy)-nicotinamide] | 18 | 1 | 6.05 |
| O=C(NCc1cc(C(F)(F)F)no1)c1ncc(OCC(F)(F)F)c(-c2ccc(Cl)cc2)n1 [Example 61, 4-(4-chloro-phenyl)-5-(2,2,2-trifluoro-ethoxy)-pyrimidine-2-carboxylic acid (3-trifluoromethyl-isoxazol-5-ylmethyl)-amide] | 32 | 17 | 6.09 |
| O=C(NCc1nc(C(F)(F)F)no1)c1cc(-c2ccc(Cl)cc2)c(OCC2CC2)cn1 [Example 18, 4-(4-chlorophenyl)-5-(cyclopropylmethoxy)-N-((3-(trifluoromethyl)-1,2,4-oxadiazol-5-yl)methyl)picolinamide] | 28 | 24 | 5.16 |
| O=C(NCc1nc(C(F)(F)F)no1)c1ccc(OCC(F)(F)F)c(-c2ccc(Cl)cc2)n1 [Example 22, 6-(4-chloro-phenyl)-5-(2,2,2-trifluoro-ethoxy)-pyridine-2-carboxylic acid (3-trifluoromethyl-[1,2,4]oxadiazol-5-ylmethyl)-amide] | 40 | 6 | 5.64 |
| C[C@H](Oc1ncc(C(=O)NCc2nc(C(F)(F)F)no2)cc1-c1ccc(Cl)cc1)C(F)(F)F [Example 38, (S)-5-(4-chlorophenyl)-N-((3-(trifluoromethyl)-1,2,4-oxadiazol-5-yl)methyl)-6-(1,1,1-trifluoropropan-2-yloxy)nicotinamide] | 32 | -2 | 6.02 |
| CC(C)c1cc(CNC(=O)c2cc(-c3ccc(Cl)cc3)c(OCC(F)(F)F)cn2)on1 [Example 2, 4-(4-chloro-phenyl)-5-(2,2,2-trifluoro-ethoxy)-pyridine-2-carboxylic acid (3-isopropyl-isoxazol-5-ylmethyl)-amide] | 30 | 14 | 5.96 |
| Cc1cc(-c2cc(C(=O)NCc3nc(C(F)(F)F)no3)cnc2OC2CCC2)ccc1Cl [Example 94, 5-(4-chloro-3-methylphenyl)-6-cyclobutoxy-N-((3-(trifluoromethyl)-1,2,4-oxadiazol-5-yl)methyl)nicotinamide] | 19 | 2 | 6.51 |
| Cc1cc(-c2cc(C(=O)NCc3nc(C(F)(F)F)no3)cnc2OCC(F)(F)F)ccc1Cl [Example 72, 5-(4-chloro-3-methylphenyl)-6-(2,2,2-trifluoroethoxy)-N-((3-(trifluoromethyl)-1,2,4-oxadiazol-5-yl)methyl)nicotinamide] | 34 | -1 | 6.30 |
| O=C(NCc1nc(C(F)(F)F)no1)c1cnc(OCC(F)(F)F)c(-c2ccc(F)c(Cl)c2)c1 [Example 81, 5-(3-chloro-4-fluorophenyl)-6-(2,2,2-trifluoroethoxy)-N-((3-(trifluoromethyl)-1,2,4-oxadiazol-5-yl)methyl)nicotinamide] | 4 | 7 | 6.05 |
| CC(C)c1cc(CNC(=O)c2ccc(OCC(F)(F)F)c(-c3ccc(Cl)cc3)n2)no1 [Example 53, 6-(4-chloro-phenyl)-5-(2,2,2-trifluoro-ethoxy)-pyridine-2-carboxylic acid (5-isopropyl-isoxazol-3-ylmethyl)-amide] | 43 | 23 |  |
| O=C(NCc1nc(C(F)(F)F)no1)c1cnc(OC2CCC2)c(-c2ccc(Cl)c(F)c2)c1 [Example 93, 5-(4-chloro-3-fluorophenyl)-6-cyclobutoxy-N-((3-(trifluoromethyl)-1,2,4-oxadiazol-5-yl)methyl)nicotinamide] | 18 | 7 |  |

Second part, led by results:

| inhibition at 10 µM (human CB1 receptor) [%] | inhibition at 10 µM (human CB2 receptor) [%] | SMILES | pEC50 (ABCA1 protein) |
| --- | --- | --- | --- |
| 48 | 12 | CCCn1ccc(CNC(=O)c2cnc(OCC(F)(F)F)c(-c3ccc(Cl)cc3)c2)n1 [Example 14, 5-(4-chloro-phenyl)-N-(1-propyl-1H-pyrazol-3-ylmethyl)-6-(2,2,2-trifluoro-ethoxy)-nicotinamide] | 6.02 |
| 27 | 17 | COc1cc(CNC(=O)c2cnc(O[C@@H](C)C(F)(F)F)c(-c3ccc(Cl)cc3)n2)on1 [Example 29, (S)-6-(4-chlorophenyl)-N-((3-methoxyisoxazol-5-yl)methyl)-5-(1,1,1-trifluoropropan-2-yloxy)pyrazine-2-carboxamide] | 5.73 |
| 28 | 14 | O=C(NCc1coc(C2CC2)n1)c1cc(-c2ccc(Cl)cc2)c(OCC(F)(F)F)cn1 [Example 70, 4-(4-chlorophenyl)-N-((2-cyclopropyloxazol-4-yl)methyl)-5-(2,2,2-trifluoroethoxy)picolinamide] | 5.81 |
| 26 | 33 | CCCn1ccc(CNC(=O)c2cc(-c3ccc(Cl)cc3)c(OCC(F)(F)F)cn2)n1 [Example 4, 4-(4-chloro-phenyl)-5-(2,2,2-trifluoro-ethoxy)-pyridine-2-carboxylic acid (1-propyl-1H-pyrazol-3-ylmethyl)-amide] | 5.55 |
| 43 | -4 | O=C(NCc1noc(C(F)(F)F)n1)c1cnc(OCC(F)(F)F)c(-c2ccc(Cl)cc2)c1 [Example 12, 5-(4-chloro-phenyl)-6-(2,2,2-trifluoro-ethoxy)-N-(5-trifluoromethyl-[1,2,4]oxadiazol-3-ylmethyl)-nicotinamide] | 5.93 |
| 29 | 8 | CC(C)c1cc(CNC(=O)c2ncc(OCC(F)(F)F)c(-c3ccc(Cl)cc3)n2)on1 [Example 44, 4-(4-chloro-phenyl)-5-(2,2,2-trifluoro-ethoxy)-pyrimidine-2-carboxylic acid (3-isopropyl-isoxazol-5-ylmethyl)-amide] | 5.99 |
| 28 | 4 | O=C(NCc1nc(C(F)(F)F)no1)c1cnc(OCC(F)(F)F)c(-c2ccc(F)c(F)c2)c1 [Example 89, 5-(3,4-difluorophenyl)-6-(2,2,2-trifluoroethoxy)-N-((3-(trifluoromethyl)-1,2,4-oxadiazol-5-yl)methyl)nicotinamide] | 5.71 |
| 30 | 43 | Cc1cc(CNC(=O)c2cc(-c3ccc(Cl)cc3)c(OCC(F)(F)F)cn2)no1 [Example 19, 4-(4-chlorophenyl)-N-((5-methylisoxazol-3-yl)methyl)-5-(2,2,2-trifluoro-ethoxy)picolinamide] |  |
| 46 | 16 | O=C(NCc1cc(C2CC2)no1)c1ccc(OCC(F)(F)F)c(-c2ccc(Cl)cc2)n1 [Example 47, 6-(4-chloro-phenyl)-5-(2,2,2-trifluoro-ethoxy)-pyridine-2-carboxylic acid (3-cyclopropyl-isoxazol-5-ylmethyl)-amide] |  |
